We go through eight compounds from paper PMC11079878 (ACS Omega, 2024).

The conditions of data set [1]: qualitative; cited from earlier work.
In the next data set the test system is HepG2 cells. As to conditions: qualitative; cited from earlier work.
For data set [2], the system named is Lolium multiflorum (Ray grass). To be noted: previously reported cyclotetrapeptides; cited from earlier work.
The test system of data set [3] is Microcystis aeruginosa strain (MVCC42). The data set is described as follows: Cyanobacteria growth inhibition. As to conditions: colistin 30 μg/mL, positive control; duplicates, 7–10 days.
Data set [4] deals with microcystins in Microcystis (MVCC42) cultures. In kind it is cell-based, Microcystis aeruginosa.
Data set [5] has as its system Lolium multiflorum (Ray grass). The experiment in a line: Herbicidal activity, germination in agar methodology. In kind it is in vivo. As to conditions: 67 μg/mL in agar; Ryegrass, 12 days; three replicates; Figure S48.

[ ]: non-standard residue; d: D form. NMeF = CN[C@@H](Cc1ccccc1)C(=O)O; NMeA = CN[C@@H](C)C(=O)O

Take versicotide D: in data set [1], the phytotoxicity result is recorded as “high phytotoxicity”. In addition, the “cytotoxicity on HepG2 cells” value in the data set on HepG2 cells is reported as “low cytotoxicity”.

For cyclo([NMeA]LFG) [compound 17], the “radicle growth inhibition (reported activity)” value (shortened to “radicle growth inhibition”) in data set [2] was 71%. In the case of `CCc1cccc(C)c1N(C(=O)CCl)[C@@H](C)COC` [Positive control, S-metolachlor], the “reduction of chlorophyll a (%)” value in data set [3] is on record as 99%. For the compound “cyclo(NMe-Ala-Leu-NMe-Δ^z-Phe-Gly) (head to tail) [Tentoxin]”, the “phytotoxic effect on seedlings” value in data set [1] was “causes seedling chlorosis”. On to colistine, for which the “inhibition of microcystins concentration (%)” value in data set [4] stood at 90%. cyclo(AL[dF]G) [compound 16]: the “radicle growth inhibition” value in data set [2] was 41%. For the compound “NH-MeAla-Leu-D-Phe-β-Ala-OH [compound 29]”, the “leaf development (%)” value in data set [5] is reported as “not active”.

Consider cyclo([NMeA]L[NMeF]G) [compound 24], for which the “radicle growth inhibition” value in data set [2] is reported as 81%.
